The record followed here is patent US20230365592A1 (Agios Pharmaceuticals, Inc., priority 2022, published 2023).

Molecules are shown by their SMILES.

For orientation: AC50 means the concentration giving half of the maximal activity seen.

In this assay the target is T1, human PAH with the R408W mutation (Homo sapiens, UniProt P00439, R408W).
T1 construct: expressed in transfected cells
T1 sequence (P00439 1-452 R408W): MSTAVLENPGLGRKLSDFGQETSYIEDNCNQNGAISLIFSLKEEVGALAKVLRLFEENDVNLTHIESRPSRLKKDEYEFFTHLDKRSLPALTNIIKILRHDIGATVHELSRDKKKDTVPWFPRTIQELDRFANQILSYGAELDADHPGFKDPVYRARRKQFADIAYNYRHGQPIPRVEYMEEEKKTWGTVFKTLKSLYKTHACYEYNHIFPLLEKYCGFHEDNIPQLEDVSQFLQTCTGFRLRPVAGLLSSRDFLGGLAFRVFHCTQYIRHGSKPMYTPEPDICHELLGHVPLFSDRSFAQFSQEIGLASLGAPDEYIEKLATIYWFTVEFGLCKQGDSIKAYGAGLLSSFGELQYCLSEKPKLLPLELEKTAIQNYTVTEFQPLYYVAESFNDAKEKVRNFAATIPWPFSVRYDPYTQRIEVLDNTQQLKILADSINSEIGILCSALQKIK
Nature of the assay: Cell Based Phenylalanine Flux Assay.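 Further: after compound treatment, cells received sepiapterin plus isotope-labelled Phenylalanine for 4 hours, then labelled Tyrosine in the medium was quantified, 10-point 2-fold dilution series run in duplicate.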 The note with it: A375 cells expressing human R408W PAH; 24 hrs compound incubation; 13C-Tyrosine by LC-MS; average where tested multiple times; read-out: AC50.
As to `CC(C)c1nnc(C(=O)N2CCc3[nH]cnc3[C@H]2c2cc3cccc(Cl)n3n2)o1` [Example 1488, (S)-(4-(7-chloropyrazolo[1,5-a]pyridin-2-yl)-6,7-dihydro-1H-imidazo[4,5-c]pyridin-5(4H)-yl)(5-isopropyl-1,3,4-oxadiazol-2-yl)methanone], the AC50 is under 0.5 µM. The result for `Cc1cccc2cc([C@H]3c4nc[nH]c4CCN3C(=O)c3nnc(C(C)C)o3)nn12` [Example 1491, (R)-(5-isopropyl-1,3,4-oxadiazol-2-yl)(4-(7-methylpyrazolo[1,5-a]pyridin-2-yl)-6,7-dihydro-1H-imidazo[4,5-c]pyridin-5(4H)-yl)methanone] reads 1 to 5 µM; that for `CC(C)c1nnc(C(=O)N2CCc3[nH]cnc3[C@H]2c2cc3cccc(C(F)F)n3n2)o1` [Example 1492, (S)-(4-(7-(difluoromethyl)pyrazolo[1,5-a]pyridin-2-yl)-6,7-dihydro-1H-imidazo[4,5-c]pyridin-5(4H)-yl)(5-isopropyl-1,3,4-oxadiazol-2-yl)methanone], 0.5 to 1 µM; that for `CC(C)c1nnc(C(=O)N2CCc3[nH]cnc3[C@@H]2c2cc3cccc(C(F)F)n3n2)o1` [Example 1493, (R)-(4-(7-(difluoromethyl)pyrazolo[1,5-a]pyridin-2-yl)-6,7-dihydro-1H-imidazo[4,5-c]pyridin-5(4H)-yl)(5-isopropyl-1,3,4-oxadiazol-2-yl)methanone], 1 to 5 µM.

As to `Cc1ncccc1-c1nnc(C(=O)N2CCc3[nH]cnc3[C@H]2c2cc3cccc(F)n3n2)o1` [Example 1494, (S)-(4-(7-fluoropyrazolo[1,5-a]pyridin-2-yl)-6,7-dihydro-1H-imidazo[4,5-c]pyridin-5(4H)-yl)(5-(2-methylpyridin-3-yl)-1,3,4-oxadiazol-2-yl)methanone], the AC50 is under 0.5 µM. The result for `Cc1ncccc1-c1nnc(C(=O)N2CCc3[nH]cnc3[C@@H]2c2cc3cccc(F)n3n2)o1` [Example 1495, (R)-(4-(7-fluoropyrazolo[1,5-a]pyridin-2-yl)-6,7-dihydro-1H-imidazo[4,5-c]pyridin-5(4H)-yl)(5-(2-methylpyridin-3-yl)-1,3,4-oxadiazol-2-yl)methanone] reads over 5 µM.

On to `Cc1cccc(-c2nnc(C(=O)N3CCc4[nH]cnc4[C@H]3c3cc4cccc(F)n4n3)o2)n1` [Example 1496, (S)-(4-(7-fluoropyrazolo[1,5-a]pyridin-2-yl)-6,7-dihydro-1H-imidazo[4,5-c]pyridin-5(4H)-yl)(5-(6-methylpyridin-2-yl)-1,3,4-oxadiazol-2-yl)methanone], for which the AC50 was under 0.5 µM. The result for `Cc1cccc(-c2nnc(C(=O)N3CCc4[nH]cnc4[C@@H]3c3cc4cccc(F)n4n3)o2)n1` [Example 1497, (R)-(4-(7-fluoropyrazolo[1,5-a]pyridin-2-yl)-6,7-dihydro-1H-imidazo[4,5-c]pyridin-5(4H)-yl)(5-(6-methylpyridin-2-yl)-1,3,4-oxadiazol-2-yl)methanone] reads 1 to 5 µM. The result for `O=C(c1nnc(-c2ncccn2)o1)N1CCc2[nH]cnc2[C@H]1c1cc2cccc(C(F)F)n2n1` [Example 1499, (S)-(4-(7-(difluoromethyl)pyrazolo[1,5-a]pyridin-2-yl)-6,7-dihydro-1H-imidazo[4,5-c]pyridin-5(4H)-yl)(5-(pyrimidin-2-yl)-1,3,4-oxadiazol-2-yl)methanone] reads 0.5 to 1 µM; that for `Cc1ncccc1-c1nnc(C(=O)N2CCc3[nH]cnc3[C@H]2c2cc3cccc(C(F)F)n3n2)o1` [Example 1500, (S)-(4-(7-(difluoromethyl)pyrazolo[1,5-a]pyridin-2-yl)-6,7-dihydro-1H-imidazo[4,5-c]pyridin-5(4H)-yl)(5-(2-methylpyridin-3-yl)-1,3,4-oxadiazol-2-yl)methanone], under 0.5 µM. `Cc1ncccc1-c1nnc(C(=O)N2CCc3[nH]cnc3[C@@H]2c2cc3cccc(C(F)F)n3n2)o1` [Example 1501, (R)-(4-(7-(difluoromethyl)pyrazolo[1,5-a]pyridin-2-yl)-6,7-dihydro-1H-imidazo[4,5-c]pyridin-5(4H)-yl)(5-(2-methylpyridin-3-yl)-1,3,4-oxadiazol-2-yl)methanone]: the concentration at half-maximal activity (AC50) was over 5 µM.

As for `O=C(c1nnc(-c2cnn(C(F)(F)F)c2)o1)N1CCc2[nH]cnc2[C@@H]1c1cc2cccc(C(F)F)n2n1` [Example 1503, (R)-(4-(7-(difluoromethyl)pyrazolo[1,5-a]pyridin-2-yl)-6,7-dihydro-1H-imidazo-[4,5-c]pyridin-5(4H)-yl)(5-(1-(trifluoromethyl)-1H-pyrazol-4-yl)-1,3,4-oxadiazol-2-yl)methanone], the AC50 was over 5 µM. The result for `O=C(c1nnc(-c2cnn(C(F)(F)F)c2)o1)N1CCc2[nH]cnc2[C@H]1c1cc2c(Cl)cccn2n1` [Example 1504, (S)-(4-(4-chloropyrazolo[1,5-a]pyridin-2-yl)-6,7-dihydro-1H-imidazo[4,5-c]pyridin-5(4H)-yl)(5-(1-(trifluoromethyl)-1H-pyrazol-4-yl)-1,3,4-oxadiazol-2-yl)methanone] reads under 0.5 µM. Consider `O=C(c1nnc(-c2ccn(C(F)(F)F)n2)o1)N1CCc2[nH]cnc2[C@H]1c1cc2ccccn2n1` [Example 1506, (S)-(4-(pyrazolo[1,5-a]pyridin-2-yl)-6,7-dihydro-1H-imidazo[4,5-c]pyridin-5(4H)-yl)(5-(1-(trifluoromethyl)-1H-pyrazol-3-yl)-1,3,4-oxadiazol-2-yl)methanone], for which the AC50 is under 0.5 µM. To `O=C(c1nnc(-c2ccn(C(F)(F)F)n2)o1)N1CCc2[nH]cnc2[C@@H]1c1cc2ccccn2n1` [Example 1507, (R)-(4-(pyrazolo[1,5-a]pyridin-2-yl)-6,7-dihydro-1H-imidazo[4,5-c]pyridin-5(4H)-yl)(5-(1-(trifluoromethyl)-1H-pyrazol-3-yl)-1,3,4-oxadiazol-2-yl)methanone] belongs over 5 µM; to `O=C(c1nnc(-c2ccn(C(F)(F)F)n2)o1)N1CCc2[nH]cnc2[C@H]1c1cc2c(C(F)(F)F)cccn2n1` [Example 1512, (S)-(5-(1-(trifluoromethyl)-1H-pyrazol-3-yl)-1,3,4-oxadiazol-2-yl)(4-(4-(trifluoromethyl)pyrazolo[1,5-a]pyridin-2-yl)-6,7-dihydro-1H-imidazo[4,5-c]pyridin-5(4H)-yl)methanone], under 0.5 µM; to `O=C(c1nnc(-c2ccn(C(F)(F)F)n2)o1)N1CCc2[nH]cnc2[C@@H]1c1cc2c(C(F)(F)F)cccn2n1` [Example 1513, (R)-(5-(1-(trifluoromethyl)-1H-pyrazol-3-yl)-1,3,4-oxadiazol-2-yl)(4-(4-(trifluoromethyl)pyrazolo[1,5-a]pyridin-2-yl)-6,7-dihydro-1H-imidazo[4,5-c]pyridin-5(4H)-yl)methanone], 1 to 5 µM. The result for `O=C(c1nnc(C2CCC2)o1)N1CCc2[nH]cnc2[C@H]1c1cc2ccccn2n1` [Example 1514, (S)-(5-cyclobutyl-1,3,4-oxadiazol-2-yl)(4-(pyrazolo[1,5-a]pyridin-2-yl)-6,7-dihydro-1H-imidazo[4,5-c]pyridin-5(4H)-yl)methanone] reads under 0.5 µM. To `O=C(c1nnc(C2CCC2)o1)N1CCc2[nH]cnc2[C@@H]1c1cc2c(C(F)F)cccn2n1` [Example 1521, (R)-(5-cyclobutyl-1,3,4-oxadiazol-2-yl)(4-(4-(difluoromethyl)pyrazolo[1,5-a]pyridin-2-yl)-6,7-dihydro-1H-imidazo[4,5-c]pyridin-5(4H)-yl)methanone] belongs 1 to 5 µM.
